Assay [1] has as its system Corn Earworm (Helicoverpa zea). Kind of assay: Insecticidal diet-surface test for corn earworm. It counts as in vivo. The following applies: 120 h, second-instar larvae on treated diet, 50 μg/cm^2 on diet surface, 5 days after treatment, 8 insects per treatment, read-out: HELIZE AVG % Mortality (50 μg/cm^2). The essentials:
(§1)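 Second-instar larvae placed on lepidopteran diet surface-treated with 50 μL of 2000 ppm compound in 9 acetone:1 water (stated as 50 μg/cm^2), eight wells per species. Held 5 days at 25° C, 50-55% RH, 16:8 h light:dark; mortality of 8 larvae scored as percent control.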

Assay [2] concerns Beet Armyworm (Spodoptera exigua). Kind of assay: Insecticidal diet-surface test for beet armyworm. It is filed as in vivo. The following applies: 120 h, second-instar larvae on treated diet, 50 μg/cm^2 on diet surface, 5 days after treatment, 8 insects per treatment, read-out: LAPHEG AVG % Mortality (50 μg/cm^2). The essentials:
as §1

For the molecule `CN(C(=O)Nc1nc(OCC(F)(F)F)cc(OCC(F)(F)F)n1)c1ccc(C(F)(F)F)cn1` [Compound 122], the values for the mortality at 50 µg/cm2 in assay [1] and in assay [2] were 88% and 100%, respectively.
Turning to `CN(C(=O)Nc1nc(OCC(F)(F)F)cc(OCC(F)(F)F)n1)c1ccc(Br)cn1` [Compound 123], the mortality at 50 µg/cm2 in assay [1] and in assay [2] was 100% throughout.
`CN(C(=O)Nc1nc(OCC(F)(F)F)cc(OCC(F)(F)F)n1)c1ccc(Cl)cn1` [Compound 124]: the mortality at 50 µg/cm2 in assay [1] and in assay [2] was 100% in each case.
For `CN(C(=O)Nc1nc(OCC(F)(F)F)cc(OCC(F)(F)F)n1)c1ccc(F)cn1` [Compound 125], the mortality at 50 µg/cm2 in assay [1] came out at 100%; in assay [2], 88%.
In the case of `CN(C(=O)Nc1nc(OCC(F)(F)F)cc(OCC(F)(F)F)n1)c1ccc(I)cn1` [Compound 126], the mortality at 50 µg/cm2 in assay [1] and in assay [2] was 100% throughout.
For the molecule `N#Cc1ccc(NC(=O)Nc2nc(OCC(F)(F)F)cc(OCC(F)(F)F)n2)nc1` [Compound 127], the mortality at 50 µg/cm2 was determined as 100% in assay [1] and 0% in assay [2].
In the same order, the values of `CN(C(=O)Nc1nc(OCC(F)(F)F)cc(OCC(F)(F)F)n1)c1ccc(C#N)cn1` [Compound 128] are 100% and 88%.
With `FC(F)(F)COc1cc(OCC(F)(F)F)nc(NC(=S)Nc2ccc(Br)cc2)n1` [Compound 129], the mortality at 50 µg/cm2 in assay [1] and in assay [2] was 100% each time.
In the case of `FC(F)(F)COc1cc(OCC(F)(F)F)nc(NC(=S)Nc2ccc(C(F)(F)F)cc2)n1` [Compound 130], the mortality at 50 µg/cm2 in assay [1] and in assay [2] was 100% each time.
In the case of `CN(C(=S)Nc1nc(OCC(F)(F)F)cc(OCC(F)(F)F)n1)c1ccc(C(F)(F)F)cc1` [Compound 131, N′-[4,6-bis(2,2,2-trifluoroethoxy)pyrimidin-2-yl]-N-methyl-N-[4-(trifluoromethyl)phenyl]thiourea], the mortality at 50 µg/cm2 in assay [1] and in assay [2] was 100% in each case.
Regarding `CN(C(=S)Nc1nc(OCC(F)(F)F)cc(OCC(F)(F)F)n1)c1ccc(Br)cc1` [Compound 132], the mortality at 50 µg/cm2 in assay [1] and in assay [2] was 100% throughout.
As for `CN(C(=S)Nc1nc(OCC(F)(F)F)cc(OCC(F)(F)F)n1)c1ccc(C(F)(F)F)nc1` [Compound 133], the mortality at 50 µg/cm2 in assay [1] and in assay [2] was 100% throughout.
Consider `O=C(Nc1nc(OCC(F)(F)F)cc(OCC(F)(F)F)n1)Nc1ccccc1OC(F)(F)F` [Compound 134], for which the mortality at 50 µg/cm2 in assay [1] and in assay [2] was 100% throughout.
`O=C(Nc1ccc(C(F)(F)F)nc1)Nc1nc(OCC(F)(F)F)c(Cl)c(OCC(F)(F)F)n1` [Compound 135]: the mortality at 50 µg/cm2 in assay [1] and in assay [2] was 100% each time.
As for `O=C(Nc1ccc(OC(F)(F)F)cc1)Nc1nc(OCC(F)(F)F)c(Cl)c(OCC(F)(F)F)n1` [Compound 136], the mortality at 50 µg/cm2 in assay [1] and in assay [2] was 100% in each case.
Regarding `O=C(Nc1ccc(Br)cc1)Nc1nc(OCC(F)(F)F)c(Cl)c(OCC(F)(F)F)n1` [Compound 137], the results for the mortality at 50 µg/cm2 in assay [1] and in assay [2] were 100% and 88%, respectively.
Take `CN(C(=O)Nc1nc(OCC(F)(F)F)c(Cl)c(OCC(F)(F)F)n1)c1ccc(OC(F)(F)F)cc1` [Compound 138]: the mortality at 50 µg/cm2 in assay [1] and in assay [2] was 100% each time.
As to `Cc1c(OCC(F)(F)F)nc(NC(=O)Nc2ccc(Br)cc2)nc1OCC(F)(F)F` [Compound 139], the mortality at 50 µg/cm2 in assay [1] and in assay [2] was 88% each time.
Take `Cc1c(OCC(F)(F)F)nc(NC(=O)N(C)c2ccc(Br)cc2)nc1OCC(F)(F)F` [Compound 140]: the mortality at 50 µg/cm2 in assay [1] and in assay [2] was 100% throughout.
Take `Cc1c(OCC(F)(F)F)nc(NC(=O)N(C)c2ccc(C(F)(F)F)cc2)nc1OCC(F)(F)F` [Compound 141]: the mortality at 50 µg/cm2 in assay [1] and in assay [2] was 100% each time.
In the case of `Cc1c(OCC(F)(F)F)nc(NC(=O)N(C)c2ccc(OC(F)(F)F)cc2)nc1OCC(F)(F)F` [Compound 142], the mortality at 50 µg/cm2 in assay [1] and in assay [2] was 100% throughout.
`Cc1c(OCC(F)(F)F)nc(NC(=O)Nc2ccc(C(F)(F)F)nc2)nc1OCC(F)(F)F` [Compound 143]: the mortality at 50 µg/cm2 in assay [1] and in assay [2] was 100% throughout.
As for `O=C(Nc1ccc(C(F)(F)F)cc1)Nc1nc(OCC(F)(F)F)c(Cl)c(OCC(F)(F)F)n1` [Compound 145], the results for the mortality at 50 µg/cm2 in assay [1] and in assay [2] were 0% and 100%, respectively.
With `O=C(Nc1ccc(Br)nc1)Nc1nc(OCC(F)(F)F)c(Cl)c(OCC(F)(F)F)n1` [Compound 146], the mortality at 50 µg/cm2 in assay [1] and in assay [2] was 100% each time.
As for `Cc1c(OCC(F)(F)F)nc(NC(=O)Nc2ccc(C(F)(F)F)cc2)nc1OCC(F)(F)F` [Compound 147], the mortality at 50 µg/cm2 in assay [1] stood at 100%; in assay [2], 88%.
Consider `CN(C(=O)Nc1nc(OCC(F)(F)F)cc(OCC(F)(F)F)n1)c1ccc(Cl)cc1Cl` [Compound 149], for which the mortality at 50 µg/cm2 in assay [1] and in assay [2] was 100% each time.
Take `CN(C(=O)Nc1nc(OCC(F)(F)F)cc(OCC(F)(F)F)n1)c1ccc(F)cc1F` [Compound 150]: the values for the mortality at 50 µg/cm2 in assay [1] and in assay [2] were 75% and 100%, respectively.
With `O=C(Nc1ccc(C(F)(F)C(F)(F)F)cc1)Nc1nc(OCC(F)(F)F)cc(OCC(F)(F)F)n1` [Compound 151], the mortality at 50 µg/cm2 in assay [1] and in assay [2] was 100% each time.
On to `CN(C(=O)Nc1nc(OCC(F)(F)F)cc(OCC(F)(F)F)n1)c1ccc(C(F)(F)C(F)(F)F)cc1` [Compound 152], for which the mortality at 50 µg/cm2 in assay [1] and in assay [2] was 100% in each case.
Regarding `CN(C(=O)Nc1nc(OCC(F)(F)F)cc(OCC(F)(F)F)n1)c1ccc(C(F)(F)F)c(Cl)c1` [Compound 153], the mortality at 50 µg/cm2 in assay [1] and in assay [2] was 100% throughout.
Take `CN(C(=O)Nc1nc(OCC(F)(F)F)cc(OCC(F)(F)F)n1)c1ccc(C(F)(F)F)c(F)c1` [Compound 154]: the mortality at 50 µg/cm2 in assay [1] and in assay [2] was 100% throughout.
Turning to `CN(C(=O)Nc1nc(OCC(F)(F)F)cc(OCC(F)(F)F)n1)c1ccc(Br)cc1C(F)(F)F` [Compound 155], the mortality at 50 µg/cm2 in assay [1] stood at 100%; in assay [2], 50%.
`O=C(Nc1nc(OCC(F)(F)F)cc(OCC(F)(F)F)n1)N(c1ccc(C(F)(F)F)cc1)C1CC1` [Compound 156]: the mortality at 50 µg/cm2 in assay [1] and in assay [2] was 100% in each case.
For the molecule `CCc1cc(Br)ccc1N(C)C(=O)Nc1nc(OCC(F)(F)F)cc(OCC(F)(F)F)n1` [Compound 157], the mortality at 50 µg/cm2 in assay [1] and in assay [2] was 100% throughout.
`Cc1cc(Br)ccc1N(C)C(=O)Nc1nc(OCC(F)(F)F)cc(OCC(F)(F)F)n1` [Compound 158]: the mortality at 50 µg/cm2 in assay [1] and in assay [2] was 100% throughout.
For the molecule `CN(C(=O)Nc1nc(OCC(F)(F)F)cc(OCC(F)(F)F)n1)c1c(F)cccc1F` [Compound 159], the mortality at 50 µg/cm2 in assay [1] was found to be 0%; in assay [2], 100%.
Turning to `CN(C(=O)Nc1nc(OCC(F)(F)F)cc(OCC(F)(F)F)n1)c1ccc(C(F)(F)F)cc1Cl` [Compound 160], the mortality at 50 µg/cm2 in assay [1] and in assay [2] was 100% each time.
For `CN(C(=O)Nc1nc(OCC(F)(F)F)cc(OCC(F)(F)F)n1)c1ccc(C(F)(F)F)cc1F` [Compound 161], the mortality at 50 µg/cm2 in assay [1] and in assay [2] was 100% each time.
As for `CN(C(=O)Nc1cc(C(F)(F)F)cc(OCC(F)(F)F)n1)c1ccc(C(F)(F)F)cc1` [Compound 162], the mortality at 50 µg/cm2 in assay [1] and in assay [2] was 100% throughout.
In the case of `O=C(Nc1ccc(OC(F)(F)F)cc1)Nc1cc(C(F)(F)F)cc(OCC(F)(F)F)n1` [Compound 163], the mortality at 50 µg/cm2 in assay [1] and in assay [2] was 100% in each case.
`O=C(Nc1ccc(C(F)(F)F)cc1)Nc1cc(C(F)(F)F)cc(OCC(F)(F)F)n1` [Compound 164]: the mortality at 50 µg/cm2 is 100% in assay [1] and 88% in assay [2].
Regarding `O=C(Nc1ccc(Br)cc1)Nc1cc(C(F)(F)F)cc(OCC(F)(F)F)n1` [Compound 166], the mortality at 50 µg/cm2 in assay [1] and in assay [2] was 100% in each case.
For `CN(C(=O)Nc1cc(C(F)(F)F)cc(OCC(F)(F)F)n1)c1ccc(Br)cc1` [Compound 167], the mortality at 50 µg/cm2 in assay [1] came out at 100%; in assay [2], 50%.
With `CN(C(=O)Nc1cc(C(F)(F)F)cc(OCC(F)(F)F)n1)c1ccc(OC(F)(F)F)cc1` [Compound 168], the mortality at 50 µg/cm2 in assay [1] and in assay [2] was 100% each time.
Regarding `CN(C(=O)Nc1cc(C(F)(F)F)cc(OCC(F)(F)F)n1)c1ccc(Br)nc1` [Compound 169], the mortality at 50 µg/cm2 in assay [1] and in assay [2] was 100% in each case.
`CN(C(=O)Nc1cc(C(F)(F)F)cc(OCC(F)(F)F)n1)c1ccc(C(F)(F)F)nc1` [Compound 170]: the mortality at 50 µg/cm2 turned out to be 100% in assay [1] and 75% in assay [2].
For the molecule `O=C(Nc1ccc(Br)nc1)Nc1cc(C(F)(F)F)cc(OCC(F)(F)F)n1` [Compound 171], the mortality at 50 µg/cm2 in assay [1] and in assay [2] was 100% throughout.
Regarding `O=C(Nc1ccc(C(F)(F)F)cc1)Nc1nc(OCC(F)(F)C(F)(F)F)cc(OCC(F)(F)C(F)(F)F)n1` [Compound 174], the mortality at 50 µg/cm2 in assay [1] was 100%; in assay [2] it was 0%.

Source of the values: patent US8455649B2, “Insecticidal substituted azinyl derivatives” (Dow AgroSciences, LLC, priority 2007, dated 2013).
